Reference: patent US20220289724A1, “KIF18A INHIBITORS” (AMGEN INC., priority 2019, published 2022)

These compounds were tested against T1, Recombinant human KIF18A (1-467 His-tagged) protein (Homo sapiens, UniProt Q8NI77) (assay: KIF18A Enzyme Assay: microtubule-stimulated ATPase activity assay (ADP-Glo)). Details: KIF18A protein 30 nM, 30 μg/mL pig microtubules, ATP at Km 75 μM, ADP-Glo luminescence, RT.
T1 construct: Recombinant human KIF18A (1-467 His-tagged) protein; His; made in house
Type: biochemical
Text: KIF18A Enzyme Assay: Microtubule-stimulated ATPase activity assay is used to measure KIF18A enzyme activity after treatment with compound. Compounds were 2-fold serially diluted in DMSO (Sigma Inc) over 22-point concentration range. Recombinant human KIF18A (1-467 His-tagged) protein was expressed using a baculovirus system and purified by affinity chromatography by Amgen Inc. Concentrations of KIF18A protein, microtubules (MT), and ATP in the reaction were optimized for standardized homogenous enzyme assay using ADP-Glorm Kinase/ATPase Assay Kit (Promega Inc). The assay measures ADP formed from the ATPase reaction. […] Concentration-response curve-fitting and IC50 determination was performed using Genedata Screener Software (Standard 15.0.1, Genedata Inc) with a four-parameter logistic regression fit model.
Table A provides data for compounds exemplified in the present application and priority document thereof, as representative compounds of the present invention, as follows: chemical name (as named by either ACD software or ChemDraw (Professional 15.0)) and biological data (IC50 in μM). Ex. […] refers to Example No.

T1 sequence (Q8NI77 1-467): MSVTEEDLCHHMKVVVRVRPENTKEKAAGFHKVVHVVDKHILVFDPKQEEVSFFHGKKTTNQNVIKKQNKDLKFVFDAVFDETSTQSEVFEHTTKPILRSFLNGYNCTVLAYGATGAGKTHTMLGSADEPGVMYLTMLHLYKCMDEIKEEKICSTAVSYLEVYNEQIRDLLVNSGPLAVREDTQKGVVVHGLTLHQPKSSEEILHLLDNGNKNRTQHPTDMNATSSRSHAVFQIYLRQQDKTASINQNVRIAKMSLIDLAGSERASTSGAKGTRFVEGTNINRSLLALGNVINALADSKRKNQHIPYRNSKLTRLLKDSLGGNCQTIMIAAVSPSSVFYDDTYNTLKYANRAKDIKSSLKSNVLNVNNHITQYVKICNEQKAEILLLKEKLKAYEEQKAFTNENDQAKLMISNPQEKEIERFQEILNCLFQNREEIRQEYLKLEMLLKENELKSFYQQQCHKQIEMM
T1 sequence (P02550 whole entry partner): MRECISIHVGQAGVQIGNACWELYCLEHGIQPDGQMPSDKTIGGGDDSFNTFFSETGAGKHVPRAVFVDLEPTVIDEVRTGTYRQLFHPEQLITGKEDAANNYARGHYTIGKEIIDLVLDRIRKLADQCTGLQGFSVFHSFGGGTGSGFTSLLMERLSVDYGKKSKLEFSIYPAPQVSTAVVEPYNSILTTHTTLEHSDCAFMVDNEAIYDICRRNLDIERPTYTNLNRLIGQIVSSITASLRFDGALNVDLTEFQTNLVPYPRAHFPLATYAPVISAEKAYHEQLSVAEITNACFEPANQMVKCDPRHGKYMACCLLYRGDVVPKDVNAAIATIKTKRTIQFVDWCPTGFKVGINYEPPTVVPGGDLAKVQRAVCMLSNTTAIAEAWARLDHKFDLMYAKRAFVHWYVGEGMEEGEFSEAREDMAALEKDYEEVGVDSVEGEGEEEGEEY
T1 sequence (P02554 whole entry partner): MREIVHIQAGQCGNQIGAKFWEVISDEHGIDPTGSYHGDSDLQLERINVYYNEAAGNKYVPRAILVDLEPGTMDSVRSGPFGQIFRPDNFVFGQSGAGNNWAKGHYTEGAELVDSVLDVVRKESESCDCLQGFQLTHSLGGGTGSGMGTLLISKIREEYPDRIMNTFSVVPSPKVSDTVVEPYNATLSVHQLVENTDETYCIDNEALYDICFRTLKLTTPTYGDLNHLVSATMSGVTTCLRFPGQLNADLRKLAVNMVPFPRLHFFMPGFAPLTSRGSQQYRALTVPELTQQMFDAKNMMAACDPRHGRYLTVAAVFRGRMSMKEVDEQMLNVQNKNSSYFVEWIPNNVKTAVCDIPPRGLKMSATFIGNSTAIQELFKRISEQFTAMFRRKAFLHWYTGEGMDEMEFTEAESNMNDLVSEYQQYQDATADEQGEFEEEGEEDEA

Row | SMILES | IC50 [nM]
1 | C[C@@H]1CN(c2cccc(NC(=O)c3ccc(NS(=O)(=O)CCO)cc3N3CCC4(CC3)CC4)c2F)CCO1 [Example 103-2, (R)-N-(2-fluoro-3-(2-methylmorpholino)phenyl)-4-((2-hydroxyethyl)sulfonamido)-2-(6-azaspiro[2.5]octan-6-yl)benzamide] | 101
2 | C[C@@H]1CN(c2cc(NC(=O)c3ccc(NS(=O)(=O)CCO)cc3N3CCC4(CC3)CC4)ccc2F)CCO1 [Example 103-4, (R)-N-(4-fluoro-3-(2-methylmorpholino)phenyl)-4-((2-hydroxyethyl)sulfonamido)-2-(6-azaspiro[2.5]octan-6-yl)benzamide] | 177
3 | Cc1cc(NC(=O)c2ccc(NS(=O)(=O)CCO)cc2N2CCC3(CC2)CC3)cc(N2CCC(F)(F)CC2)c1 [Example 104, N-(3-(4,4-difluoropiperidin-1-yl)-5-methylphenyl)-4-((2-hydroxyethyl)sulfonamido)-2-(6-azaspiro[2.5]octan-6-yl)benzamide] | 34
4 | O=C(Nc1cccc(N2CCC(F)(F)CC2)c1)c1ccc(NS(=O)(=O)CCO)cc1N1CCC2(CC1)CC2 [Example 104-1, N-(3-(4,4-difluoropiperidin-1-yl)phenyl)-4-((2-hydroxyethyl)sulfonamido)-2-(6-azaspiro[2.5]octan-6-yl)benzamide] | 12
5 | O=C(Nc1cccc(N2CCC(F)(F)CC2)c1F)c1ccc(NS(=O)(=O)CCO)cc1N1CCC2(CC1)CC2 [Example 104-2, N-(3-(4,4-difluoropiperidin-1-yl)-2-fluorophenyl)-4-((2-hydroxyethyl)sulfonamido)-2-(6-azaspiro[2.5]octan-6-yl)benzamide] | 29
6 | CC(C)(O)COc1cccc(NC(=O)c2ccc(NS(=O)(=O)CCO)cc2N2CCC3(CC2)CC3)c1 [Example 106, N-(3-(2-Hydroxy-2-methylpropoxy)phenyl)-4-((2-hydroxyethyl)sulfonamido)-2-(6-azaspiro[2.5]octan-6-yl)benzamide] | 78
7 | CC(C)(C)NS(=O)(=O)c1cccc(NC(=O)c2ccc(S(=O)(=O)N3CCC3)cc2N2CCC3(CC2)CC3)c1 [Example 107, 4-(Azetidin-1-ylsulfonyl)-N-(3-(N-(tert-butyl)sulfamoyl)phenyl)-2-(6-azaspiro[2.5]octan-6-yl)benzamide] | 44
8 | Cn1ccnc1-c1ccc(C(=O)Nc2cccc(S(=O)(=O)NC(C)(C)C)c2)c(N2CCC3(CC2)CC3)c1 [Example 109, N-(3-(N-(tert-butyl)sulfamoyl)phenyl)-4-(1-methyl-1H-imidazol-2-yl)-2-(6-azaspiro[2.5]octan-6-yl)benzamide] | 124
9 | CC(C)(C)NS(=O)(=O)c1cccc(NC(=O)c2ccc(NC(C)(C)CO)cc2N2CCC3(CC2)CC3)c1 [Example 110, N-(3-(N-(tert-Butyl)sulfamoyl)phenyl)-4-((1-hydroxy-2-methylpropan-2-yl)amino)-2-(6-azaspiro[2.5]octan-6-yl)benzamide] | 58
10 | CC(C)(C)NS(=O)(=O)c1cccc(NC(=O)c2ccc(C(=O)NCCO)cc2N2CCC3(CC2)CC3)c1 [Example 111, N-(3-(N-(tert-Butyl)sulfamoyl)phenyl)-N^4-(2-hydroxyethyl)-2-(6-azaspiro[2.5]octan-6-yl)terephthalamide] | 124

Second part, the compound after the results:

Row | IC50 [nM] | SMILES
11 | 60 | CC(C)(C)NS(=O)(=O)c1cccc(NC(=O)c2ccc(S(=O)(=O)NC(C)(C)CO)cc2N2CCC3(CC2)CC3)c1 [Example 107-1, N-(3-(N-(tert-butyl)sulfamoyl)phenyl)-4-(N-(1-hydroxy-2-methylpropan-2-yl)sulfamoyl)-2-(6-azaspiro[2.5]octan-6-yl)benzamide]
12 | 43 | CC(C)(C)NS(=O)(=O)c1cccc(NC(=O)c2ccc(S(=O)(=O)NCCO)cc2N2CCC3(CC2)CC3)c1 [Example 107-2, N-(3-(N-(tert-butyl)sulfamoyl)phenyl)-4-(N-(2-hydroxyethyl)sulfamoyl)-2-(6-azaspiro[2.5]octan-6-yl)benzamide]
13 | 70 | CN(C)S(=O)(=O)c1ccc(C(=O)Nc2cccc(S(=O)(=O)NC(C)(C)C)c2)c(N2CCC3(CC2)CC3)c1 [Example 107-3, N-(3-(N-(tert-butyl)sulfamoyl)phenyl)-4-(N,N-dimethylsulfamoyl)-2-(6-azaspiro[2.5]octan-6-yl)benzamide]
14 | 29 | CNS(=O)(=O)c1ccc(C(=O)Nc2cccc(S(=O)(=O)NC(C)(C)C)c2)c(N2CCC3(CC2)CC3)c1 [Example 107-4, N-(3-(N-(tert-butyl)sulfamoyl)phenyl)-4-(N-methylsulfamoyl)-2-(6-azaspiro[2.5]octan-6-yl)benzamide]
15 | 60 | CC(C)(C)NS(=O)(=O)c1cccc(NC(=O)c2ccc(S(=O)(=O)NC3COC3)cc2N2CCC3(CC2)CC3)c1 [Example 107-5, N-(3-(N-(tert-butyl)sulfamoyl)phenyl)-4-(N-(oxetan-3-yl)sulfamoyl)-2-(6-azaspiro[2.5]octan-6-yl)benzamide]
16 | 36 | CC(C)(C)NS(=O)(=O)c1cccc(NC(=O)c2ccc(S(=O)(=O)NC3CC3)cc2N2CCC3(CC2)CC3)c1 [Example 107-6, N-(3-(N-(tert-butyl)sulfamoyl)phenyl)-4-(N-cyclopropylsulfamoyl)-2-(6-azaspiro[2.5]octan-6-yl)benzamide]
17 | 52 | CC(C)(C)NS(=O)(=O)c1cccc(NC(=O)c2ccc(S(=O)(=O)NC3(C)CC3)cc2N2CCC3(CC2)CC3)c1 [Example 107-7, N-(3-(N-(tert-butyl)sulfamoyl)phenyl)-4-(N-(1-methylcyclopropyl)sulfamoyl)-2-(6-azaspiro[2.5]octan-6-yl)benzamide]
18 | 40 | CC(C)(C)NS(=O)(=O)c1cccc(NC(=O)c2ccc(S(N)(=O)=O)cc2N2CCC3(CC2)CC3)c1 [Example 107-8, N-(3-(N-(tert-butyl)sulfamoyl)phenyl)-2-(6-azaspiro[2.5]octan-6-yl)-4-sulfamoylbenzamide]
19 | 601 | Cn1nccc1-c1ccc(C(=O)Nc2cccc(S(=O)(=O)NC(C)(C)C)c2)c(N2CCC3(CC2)CC3)c1 [Example 109-1, N-(3-(N-(tert-butyl)sulfamoyl)phenyl)-4-(1-methyl-1H-pyrazol-5-yl)-2-(6-azaspiro[2.5]octan-6-yl)benzamide]
20 | 1090 | Cn1cc(-c2ccc(C(=O)Nc3cccc(S(=O)(=O)NC(C)(C)C)c3)c(N3CCC4(CC3)CC4)c2)cn1 [Example 109-2, N-(3-(N-(tert-butyl)sulfamoyl)phenyl)-4-(1-methyl-1H-pyrazol-4-yl)-2-(6-azaspiro[2.5]octan-6-yl)benzamide]
21 | 534 | CC(C)(C)NS(=O)(=O)c1cccc(NC(=O)c2ccc(-c3ncco3)cc2N2CCC3(CC2)CC3)c1 [Example 109-3, N-(3-(N-(tert-butyl)sulfamoyl)phenyl)-4-(oxazol-2-yl)-2-(6-azaspiro[2.5]octan-6-yl)benzamide]
22 | 134 | CC(C)(C)NS(=O)(=O)c1cccc(NC(=O)c2ccc(NCCO)cc2N2CCC3(CC2)CC3)c1 [Example 110-1, N-(3-(N-(tert-butyl)sulfamoyl)phenyl)-4-((2-hydroxyethyl)amino)-2-(6-azaspiro[2.5]octan-6-yl)benzamide]
23 | 132 | CNC(=O)c1ccc(C(=O)Nc2cccc(S(=O)(=O)NC(C)(C)C)c2)c(N2CCC3(CC2)CC3)c1 [Example 111-1, N^1-(3-(N-(tert-butyl)sulfamoyl)phenyl)-N^4-methyl-2-(6-azaspiro[2.5]octan-6-yl)terephthalamide]
24 | 201 | CN(CCO)C(=O)c1ccc(C(=O)Nc2cccc(S(=O)(=O)NC(C)(C)C)c2)c(N2CCC3(CC2)CC3)c1 [Example 111-2, N^1-(3-(N-(tert-butyl)sulfamoyl)phenyl)-N^4-(2-hydroxyethyl)-N^4-methyl-2-(6-azaspiro[2.5]octan-6-yl)terephthalamide]
25 | 272 | CC(C)(C)NS(=O)(=O)c1cccc(NC(=O)c2ccc(C(=O)NC(C)(C)CO)cc2N2CCC3(CC2)CC3)c1 [Example 111-3, N^1-(3-(N-(tert-butyl)sulfamoyl)phenyl)-N^4-(1-hydroxy-2-methylpropan-2-yl)-2-(6-azaspiro[2.5]octan-6-yl)terephthalamide]
26 | 139 | O=C(NCCO)c1ccc(C(=O)Nc2cccc(S(=O)(=O)C3CCCC3)c2)c(N2CCC3(CC2)CC3)c1 [Example 111-4, N^1-(3-(cyclopentylsulfonyl)phenyl)-N^4-(2-hydroxyethyl)-2-(6-azaspiro[2.5]octan-6-yl)terephthalamide]
27 | 429 | C[S@@](=N)(=O)c1cccc(NC(=O)c2ccc(NS(=O)(=O)CCO)cc2N2CCC3(CC2)CC3)c1 [Example 113-1, (R)-4-((2-hydroxyethyl)sulfonamido)-N-(3-(S-methylsulfonimidoyl)phenyl)-2-(6-azaspiro[2.5]octan-6-yl)benzamide]
28 | 488 | C[S@](=N)(=O)c1cccc(NC(=O)c2ccc(NS(=O)(=O)CCO)cc2N2CCC3(CC2)CC3)c1 [Example 113-2, (S)-4-((2-hydroxyethyl)sulfonamido)-N-(3-(S-methylsulfonimidoyl)phenyl)-2-(6-azaspiro[2.5]octan-6-yl)benzamide]
29 | 194 | CC(C)(C)[S@@](=N)(=O)c1cccc(NC(=O)c2ccc(NS(=O)(=O)CCO)cc2N2CCC3(CC2)CC3)c1 [Example 114-1, (R)-4-((2-hydroxyethyl)sulfonamido)-N-(3-(2-methylpropan-2-ylsulfonimidoyl)phenyl)-2-(6-azaspiro[2.5]octan-6-yl)benzamide]
